The assay deals with Recombinant human Cbl-b (aa 36-427) (Homo sapiens (Human), UniProt Q13191). Nature of the assay: Cbl-b Biochemical Assay (TR-FRET). The following applies: read-out: TR-FRET hCbl-b IC50. As to the method:
Recombinant human Cbl-b (aa 36-427) was expressed in E. coli, purified and biotinylated in vitro. The protein was diluted to 12 nM in freshly prepared assay buffer consisting of 50 mM HEPES, pH 7.0, 100 mM NaCl, 5 mM MgCl2, 0.01% Triton-X 100, 0.01% BSA and 1 mM DTT. Recombinant human Src (aa 254-536)-[…]-Zap-70 (aa 281-297) fusion protein was expressed in E. coli and purified. Protein was diluted in assay buffer to 2-5 nM and supplemented with ATP to 1 mM. Fluorescein-BODIPY labeled UBE[…]([…])-Ub was prepared by conjugating ubiquitin (Ub) labeled at its N-terminus with Fluorescein-BODIPY maleimide (ThermoFisher Catalog no B10250) to E. coli expressed and purified UBE[…]([…]) [see Dou et al Nature Structural and Molecular Biology 8: 982-987, 2013]. Recombinant human UBE2D2([…]) was expressed in E. coli, purified and ubiquitinated and Bodipy labelled in vitro. Protein was diluted to 200 nM in assay buffer without MgCl2 (or Cisbio PPI buffer). Streptavidin-Terbium was added to 2 nM and EDTA to 10 mM, to provide a binding assay mix. Compounds were dissolved in DMSO and diluted to prepare a ten-point dilution series. 100 nl of each compound concentration was dispensed in duplicate in a 384 well black assay plate using acoustic dispensing. Wells for maximum signal controls received 100 nl of DMSO only and wells for minimum signal controls received 100 nl of a reference inhibitor compound at a final assay concentration of […] to produce 100% inhibition. 5 μl of diluted Cbl-b enzyme was added to all wells of the assay plate and incubated at RT for 30-60 min. The enzyme assay was initiated by addition of 5 μl of Src-Zap/ATP mix to all wells, and the plate incubated at RT for 60 min. The enzyme reaction was terminated and the binding reaction was initiated by adding 10 μl of binding assay mix to all wells and incubating the plate at RT for 60 min prior to assay read. Final assay conditions consisted of 6 nM Cbl-b, 1-2.5 nM Src-Zap70, 0.5 mM ATP, 1% (v/v) DMSO (enzyme reaction) and 100 nM UBE2D2([…])-Ub-FL-BODIPY, 5 mM EDTA, 1 nM Streptavidin-Tb (binding reaction). The HTRF assay signal was measured at 520 nm on an Envision plate reader, with reference signal at 485 or 620 nm. Data was normalized using maximum and minimum assay controls: % Inhibition=100-(100*((maximum control)-unknown)/(maximum control-minimum control)). A 4-parameter dose-response equation was used to fit the normalized dose-response data and derive an IC50 for test compounds.
Recombinant human Cbl-b (aa 36-427), sequence (Q13191 36-427): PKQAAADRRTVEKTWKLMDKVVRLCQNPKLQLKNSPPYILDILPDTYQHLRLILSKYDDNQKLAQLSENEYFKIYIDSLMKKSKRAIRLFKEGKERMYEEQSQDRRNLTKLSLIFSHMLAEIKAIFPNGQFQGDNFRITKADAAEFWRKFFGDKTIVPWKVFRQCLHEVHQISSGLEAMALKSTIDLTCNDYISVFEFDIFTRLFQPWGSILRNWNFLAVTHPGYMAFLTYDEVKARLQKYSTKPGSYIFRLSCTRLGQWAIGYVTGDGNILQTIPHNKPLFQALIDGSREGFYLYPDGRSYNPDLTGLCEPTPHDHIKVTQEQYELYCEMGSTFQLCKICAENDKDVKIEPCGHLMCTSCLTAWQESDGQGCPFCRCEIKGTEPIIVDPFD
For `Cn1cnnc1-c1ccccc1-c1cccc(N2Cc3c(cc(CN[C@H]4CCC[C@H]4O)cc3C(F)(F)F)C2=O)c1` [AA-2, 6-((((1S,2R)-2-Hydroxycyclopentyl)amino)methyl)-2-(2′-(4-methyl-4H-1,2,4-triazol-3-yl)-[1,1′-biphenyl]-3-yl)-4-(trifluoromethyl)isoindolin-1-one], the IC50 (commonly the midpoint of a concentration-inhibition curve) was at most 0.2 µM.
Take `Cn1cnnc1-c1nccn1-c1cccc(N2Cc3c(cccc3C(F)(F)F)C2=O)c1` [AAA-8, 2-[3-[2-(4-Methyl-1,2,4-triazol-3-yl)imidazol-1-yl]phenyl]-4-(trifluoromethyl)-3H-isoindol-1-one]: the IC50 is 10 to 50 µM.
Take `Cn1cnnc1-c1cnn(C)c1-c1cccc(N2Cc3c(cc(CN4CCC5(CC5)C4)cc3C(F)(F)F)C2=O)c1` [AAD-1, 6-((5-Azaspiro [2.4]heptan-5-yl)methyl)-2-(3-(1-methyl-4-(4-methyl-4H-1,2,4-triazol-3-yl)-1H-pyrazol-5-yl)phenyl)-4-(trifluoromethyl)isoindolin-1-one]: the IC50 was at most 0.2 µM.
Turning to `Cn1cnnc1-c1cnn(C)c1-c1cccc(NC(=O)c2cc(=O)n(C)c(C3CC3)n2)c1` [AAE-6, 2-Cyclopropyl-1-methyl-N-[3-[2-methyl-4-(4-methyl-1,2,4-triazol-3-yl)pyrazol-3-yl]phenyl]-6-oxopyrimidine-4-carboxamide], the IC50 is 10 to 50 µM.
On to `CCn1cc(-c2nncn2C)c(-c2cccc(N3Cc4c(cccc4C(F)(F)F)C3=O)c2)n1` [AAF-9, 2-[3-[1-Ethyl-4-(4-methyl-1,2,4-triazol-3-yl)pyrazol-3-yl]phenyl]-4-(trifluoromethyl)-3H-isoindol-1-one], for which the IC50 was in the range of 10 to 50 µM.
Consider `Cn1cnnc1-c1ccc(C(F)(F)F)cc1-c1cccc(N2Cc3c(cccc3C(F)(F)F)C2=O)c1` [AAG-8, 2-(2′-(4-Methyl-4H-1,2,4-triazol-3-yl)-5′-(trifluoromethyl)-[1,1′-biphenyl]-3-yl)-4-(trifluoromethyl)isoindolin-1-one], for which the IC50 was in the range of 10 to 50 µM.
Consider `CCOc1cc(-c2c(-c3nncn3C)cnn2C)cc(N2Cc3c(cccc3C(F)(F)F)C2=O)c1` [AAI-7, 2-(3-Ethoxy-5-(1-methyl-4-(4-methyl-4H-1,2,4-triazol-3-yl)-1H-pyrazol-5-yl)phenyl)-4-(trifluoromethyl) isoindolin-1-one], for which the IC50 is 0.2 to 1 µM.
Consider `Cn1cnnc1-c1ccc(Br)cc1-c1cccc(N2Cc3c(cccc3C(F)(F)F)C2=O)c1` [AAJ-9, 2-(5′-Bromo-2′-(4-methyl-4H-1,2,4-triazol-3-yl)-[1,1′-biphenyl]-3-yl)-4-(trifluoromethyl)isoindolin-1-one], for which the IC50 is 1 to 10 µM.
On to `Cn1cnnc1-c1ccccc1-c1cccc(N2Cc3c(cccc3C(F)(F)F)C2=O)c1` [AAK-2, 2-(2′-(4-Methyl-4H-1,2,4-triazol-3-yl)-[1,1′-biphenyl]-3-yl)-4-(trifluoromethyl)isoindolin-1-one], for which the IC50 fell in the range of 0.2 to 1 µM.
On to `Cn1cc(-c2nncn2C)c(-c2cccc(N3Cc4c(cccc4C(F)(F)F)C3=O)c2)n1` [AAL-8, 2-[3-[1-Methyl-4-(4-methyl-1,2,4-triazol-3-yl)pyrazol-3-yl]phenyl]-4-(trifluoromethyl)-3H-isoindol-1-one], for which the IC50 lay in the range of 10 to 50 µM.
As to `Cn1cnnc1-c1cnn(C)c1-c1ccnc(N2Cc3c(cccc3C(F)(F)F)C2=O)c1` [AAM-3, 2-(4-(1-Methyl-4-(4-methyl-4H-1,2,4-triazol-3-yl)-1H-pyrazol-5-yl)pyridin-2-yl)-4-(trifluoromethyl)isoindolin-1-one], the IC50 was 1 to 10 µM.
Regarding `Cn1cnnc1-c1cnn(C)c1-c1cc(Cl)nc(N2Cc3c(cccc3C(F)(F)F)C2=O)c1` [AAN-7, 2-(6-Chloro-4-(1-methyl-4-(4-methyl-4H-1,2,4-triazol-3-yl)-1H-pyrazol-5-yl)pyridin-2-yl)-4-(trifluoromethyl)isoindolin-1-one], the IC50 is 1 to 10 µM.
The result for `Cn1cnnc1-c1cnn(C)c1-c1cc(O)nc(N2Cc3c(cccc3C(F)(F)F)C2=O)c1` [AAO-1, 2-(6-Hydroxy-4-(1-methyl-4-(4-methyl-4H-1,2,4-triazol-3-yl)-1H-pyrazol-5-yl)pyridin-2-yl)-4-(trifluoromethyl)isoindolin-1-one] reads 10 to 50 µM; that for `Cn1cnnc1-c1ccccc1-c1cccc(NC(=O)c2cc(=O)[nH]c(C3CC3)n2)c1` [AAP-1, 2-Cyclopropyl-N-(2′-(4-methyl-4H-1,2,4-triazol-3-yl)-[1,1′-biphenyl]-3-yl)-6-oxo-1,6-dihydropyrimidine-4-carboxamide], 1 to 10 µM.
For `Cn1cnnc1-c1ccccc1-c1cccc(N2Cc3c(cc(CN4CCC5(CC5)C4)cc3C(F)(F)F)C2=O)c1` [AAQ-1, 6-((5-Azaspiro [2.4]heptan-5-yl)methyl)-2-(2′-(4-methyl-4H-1,2,4-triazol-3-yl)-[1,1′-biphenyl]-3-yl)-4-(trifluoromethyl)isoindolin-1-one], the IC50 is at most 0.2 µM.
As to `CCOc1cc(-c2ccccc2-c2nncn2C)cc(N2Cc3c(cccc3C(F)(F)F)C2=O)c1` [AAR-5, 2-(5-Ethoxy-2′-(4-methyl-4H-1,2,4-triazol-3-yl)-[1,1′-biphenyl]-3-yl)-4-(trifluoromethyl) isoindolin-1-one], the IC50 was 0.2 to 1 µM.
With `Cn1c(O)nnc1-c1cnccc1-c1cccc(N2Cc3c(cccc3C(F)(F)F)C2=O)c1` [AAS-6, 2-(3-(3-(5-Hydroxy-4-methyl-4H-1,2,4-triazol-3-yl)pyridin-4-yl)phenyl)-4-(trifluoromethyl)isoindolin-1-one], the IC50 lay in the range of 10 to 50 µM.
In the case of `Cn1cnnc1-c1ccccc1-c1cc(Cl)nc(N2Cc3c(cccc3C(F)(F)F)C2=O)c1` [AAT-1, 2-(6-Chloro-4-(2-(4-methyl-4H-1,2,4-triazol-3-yl)phenyl)pyridin-2-yl)-4-(trifluoromethyl)isoindolin-1-one], the IC50 is 0.2 to 1 µM.
In the case of `CCNc1cc(-c2ccccc2-c2nncn2C)cc(N2Cc3c(cccc3C(F)(F)F)C2=O)n1` [AAU-1, 2-(6-(Ethylamino)-4-(2-(4-methyl-4H-1,2,4-triazol-3-yl)phenyl)pyridin-2-yl)-4-(trifluoromethyl)isoindolin-1-one], the IC50 was at most 0.2 µM.
As to `Cc1nc[nH]c1-c1ccccc1-c1cccc(N2Cc3c(cccc3C(F)(F)F)C2=O)c1` [AAV-6, 2-(2′-(4-Methyl-1H-imidazol-5-yl)-[1,1′-biphenyl]-3-yl)-4-(trifluoromethyl)isoindolin-1-one], the IC50 fell in the range of 1 to 10 µM.
On to `Cn1cnnc1-c1cnn(C)c1-c1cc(NS(C)(=O)=O)nc(N2Cc3c(cccc3C(F)(F)F)C2=O)c1` [AAW-2, N-(4-(1-Methyl-4-(4-methyl-4H-1,2,4-triazol-3-yl)-1H-pyrazol-5-yl)-6-(1-oxo-4-(trifluoromethyl)isoindolin-2-yl)pyridin-2-yl)methanesulfonamide], for which the IC50 lay within 1 to 10 µM.
On to `Cn1ncnc1-c1ccccc1-c1cccc(N2Cc3c(cccc3C(F)(F)F)C2=O)c1` [AAX-2, 2-(2′-(1-Methyl-1H-1,2,4-triazol-5-yl)-[1,1′-biphenyl]-3-yl)-4-(trifluoromethyl)isoindolin-1-one], for which the IC50 is 10 to 50 µM.
As for `Cn1cnnc1-c1cnccc1-c1cccc(N2Cc3c(cccc3C(F)(F)F)C2=O)c1` [AAY-6, 2-[3-[3-(4-Methyl-1,2,4-triazol-3-yl)-pyridin-4-yl]-phenyl]-4-(trifluoromethyl)-3H-isoindol-1-one], the IC50 lay in the range of 1 to 10 µM.
Turning to `Cc1conc1-c1ccccc1-c1cccc(N2Cc3c(cccc3C(F)(F)F)C2=O)c1` [AAZ-7, 2-(2′-(4-Methylisoxazol-3-yl)-[1,1′-biphenyl]-3-yl)-4-(trifluoromethyl)isoindolin-1-one], the IC50 lay within 1 to 10 µM.
Take `C[C@H]1CN(Cc2cc3c(c(C(F)(F)F)c2)CN(c2cccc(-c4ccccc4-c4nncn4C)c2)C3=O)CCO1` [AB-2, (S)-2-(2′-(4-Methyl-4H-1,2,4-triazol-3-yl)-[1,1′-biphenyl]-3-yl)-6-((2-methylmorpholino)methyl)-4-(trifluoromethyl)isoindolin-1-one]: the IC50 was at most 0.2 µM.
As for `O=C1c2cccc(C(F)(F)F)c2CN1c1cccc(-c2ccccc2-c2nnco2)c1` [ABA-4, 2-(2′-(1,3,4-Oxadiazol-2-yl)-[1,1′-biphenyl]-3-yl)-4-(trifluoromethyl)isoindolin-1-one], the IC50 was 10 to 50 µM.
For `Cn1cnnc1-c1ccncc1-c1cccc(N2Cc3c(cccc3C(F)(F)F)C2=O)c1` [ABB-5, 2-[3-[4-(4-Methyl-1,2,4-triazol-3-yl)pyridin-3-yl]phenyl]-4-(trifluoromethyl)-3H-isoindol-1-one], the concentration for half-maximal inhibition (IC50) is 1 to 10 µM.

The values are drawn from patent US12325697B2 (Nimbus Clio, Inc., priority 2021, dated 2025).
